The nature of data set [1]: Rate of photobleaching in phosphate-buffered saline. It counts as physicochemical. The settings on record: PBS; 570-750 nm light at 500 mW cm^−2; constant initial absorbance. The source says:
One limitation of PDT dosimetry is the rate of photobleaching of the photosensitizer, which can be problematic with Photofrin® and even more problematic with the bacteriochlorins and the chlorins (such as HPPH).

For data set [2], the system named is Colo-26 tumors. Description: PDT against implanted Colo-26 tumors in BALB/c mice. It counts as in vivo. As to conditions: 135 J cm^−2; DH-105 2.5, DH-82 0.13, MA-99 0.15 mg/kg, 694 nm 4 h post-injection; Photofrin® 2.5 mg/kg, 630 nm 24 h. How it is done: Core-modified porphyrin 6 gave a PDT response in vivo with 694-nm light in BALB/c mice bearing Colo-26 tumors. Animals treated with photosensitizer 6 at 3.25 mg (3.0 μmol)/kg and light required 10.3±0.8 d to reach 400-mm^3 tumor volume, which was more than double the time for control animals (4.3±1.0 d) receiving neither drug nor light (P <0.01).
The animals were irradiated 4 h post-injection with 135 J cm^−2 of 694-nm red light from a dye laser (75 mW cm^−2 for 30 min). […] For comparison purposes, BALB/C mice bearing Colo-26 tumors were given 2.5 mg (4.0 μmol)/kg of Photofrin® as a 5% aqueous dextrose solution and were irradiated 24 h later with 135 J cm^−2 of 630-nm laser light at a power of 75 mW cm^−2 for PDT with Photofrin®.
Animals initially were given i.v. (tail vein) injections of sensitizer at various concentrations (0.05to 5.0 μmol/kg). Mice were restrained at various times thereafter without anesthesia in specially designed holders. Fischer 344 female rats were chemically restrained at various times thereafter. In both models, tumors or normal back skin were exposed to light from a xenon arc lamp with appropriate filters or to a dye laser tuned to the absorption maximum determined by in vivo reflectance measurements. Power density of delivered light typically fell in the range of 10-200 mW cm^−2 evenly distributed to a spot size of roughly 1.5 cm and measured by a radiometer. Several dose rates were explored to examine role/limitation of available oxygen on the photodynamic process. Intratumor temperatures were measured with an Omega HYP-O microthermocouple and, when necessary, a stream of nitrogen gas was used to keep intratumor temperatures below 37° C. Animals were examined and measured daily for the first 14 days post treatment and every other day thereafter until the tumors reached 400 mm^3 in mice or until the tumors double in size for Fischer 344 female rats or for 90 days. Tumor size were measured in two dimensions with a caliper. Time to 400 mm^3 or volume doubling times of tumors from control and PDT-treated groups (8-12 animals per group) were compared statistically using the SAS statistical program (SAS, Inc., Cary, N.C.). A P-value of <0.05 is considered significant. The degree of damage to the normal skin within the irradiation field also were noted. Disappearance of tumor with minimal damage to normal skin is the most desirable response. Animals are considered cured if no tumor regrowth occurs by 90 days. In all studies, three control groups were utilized in addition to the treatment group receiving both sensitizer and light: 1) a complete control receiving neither drug nor light, 2) a group receiving sensitizer only, and 3) a group receiving light only. Representative animals from each of the treatment groups were processed for histology immediately, one day, or two weeks after irradiation. Step sections through the tumor were used to define the boundaries of tumor cell damage and death as a function of distance from the skin surface.

Turning to `O=C([O-])COc1ccc(-c2c3nc(c(-c4ccc(F)cc4)c4ccc(s4)c(-c4ccc(F)cc4)c4nc(c(-c5ccc(OCC(=O)[O-])cc5)c5ccc2s5)C=C4)C=C3)cc1.[Na+].[Na+]` [MA-99], in data set [1], the “rate of photobleaching (kbleach)” value is 0.16 ± 0.02 × 10^4 s^−1. For the same molecule, in data set [2], the “cures (no tumor regrowth 90 days post-treatment)” value is given as “five cures” and the “mean time to 400 mm^3 of the animals not cured” value was 23 ± 7 days.
